Source: ChEMBL document CHEMBL1150576, “Two new lactones with mosquito larvicidal activity from three Hortonia species” (2001)
In brackets after ≈: the same amount, converted by molar mass.

System: Aedes aegypti
Assay: Larvicidal activity against second instar larvae of Aedes aegypti
Format: functional

Compound | LC50
C#CCCCCCCCCCCC1=C[C@H](C)OC1=O | 0.41 µg/mL (≈ 1.56 µM)
C=CCCCCCCCCCCC1=C[C@H](C)OC1=O | 0.47 µg/mL (≈ 1.78 µM)
